Key:
Experiment in all cases: Cell cycle analysis (flow cytometry)
Type in all cases: cell-based
HL-60 cells = system: HL-60 cells
Description: (§1) The effect of Rilpivirine on cell cycle distribution in different cancer cell lines was evaluated by flow cytometric analysis. Briefly, cells were seeded in 6-well plates at a density of 6 × 10^4 cells/well. All plates were incubated overnight at 37° C. in a 5% CO2 incubator. Following the incubation, the test compounds (Rilpivirine (Ril) and comparators, Alisertib (Ali; a known Aurora A inhibitor) and Etravirine (Etra; 4-[[6-amino-5-bromo-2-[(4-cyanophenyl)amino]-4-pyrimidinyl]oxy]-3,5-dimethylbenzonitrile - a structurally similar NNRTI drug compound sold under the brand name Intelence® (Janssen Therapeutics)) were added to individual wells and the plates were incubated at same condition for 24 h, 48 h or 72 h. Subsequently, the medium was removed from the wells and transferred into fluorescence-activated cell sorting (FACS) tubes. The adherent cells remaining were trypsinised, re-suspended in media and transferred into the FACS tubes. Cells were centrifuged, fixed with cold 70% ethanol for 15 min and pelleted. The pelleted cells were then re-suspended in 200 µL propidium iodide (PI) solution (50 µg/mL propidium iodide, 0.1 mg/mL ribonuclease A, 0.1% sodium citrate, 0.1% triton X-100) and incubated in the dark for 1.5 h at room temperature. Following the incubation, 200 µL PBS was added. Samples were assessed using a flow cytometer (Cytoflex; Beckman Coulter Inc, Brea, CA, United States of America) and data were analysed using the Cytexpert software.

[1] = system: Miapaca-2 (pancreatic) cancer cell lines; settings: 48 hours; data not shown
Description: as §1

NB4 cells = settings: various concentrations, 24 hour
Description: as §1

PC3 cells = settings: 48 hour treatment; p53 mutant
Description: as §1

SKOV-3 cells = settings: 72 hours, 5 µM, 10 µM and 20 µM; p53 mutant; data not shown
Description: as §1

T47D cells = settings: 48-hour treatment; p53 mutant
Description: as §1

U-937 cells = settings: various concentrations, 24 hour
Description: as §1

[2] = system: p53 wild-type (WT) A2780 cells; settings: 24, 48 and 72 hour
Description: as §1

Compound: Cc1cc(/C=C/C#N)cc(C)c1Nc1ccnc(Nc2ccc(C#N)cc2)n1 [Rilpivirine, 4-[[4-[4-[(E)-2-cyanoethenyl]-2,6-dimethylanilino]pyrimidin-2-yl]amino]benzonitrile]
- cell cycle arrest (HL-60 cells; 5, 10 and 20 µM for 24 hrs, p53 null): arrested in the G2/M Phase
- numbers of cells in G2/M (HL-60 cells; 24 hour treatment, versus diluent only): approximately doubled
- cell cycle arrest [1]: G2/M arrest increased with increasing concentrations of the drug
- cell cycle arrest (NB4 cells): arrests NB4 and Jurkat cells in the G2/M phase in a dose-dependent manner
- cell cycle arrest (PC3 cells): induce G2/M arrest
- cell cycle arrest (SKOV-3 cells): caused G2/M arrest in a dose-dependent manner
- cell cycle arrest (T47D cells): arrest T47D breast cancer cells in G2/M phase
- cell cycle arrest (U-937 cells): arrests both of these cell lines in the G2/M phase in a dose-dependent manner
- cell cycle arrest ([2]; 10 µM): arrests the cells in the G1 phase
- cell cycle distribution ([2]; 20 µM): increased number of cells accumulated in Sub-G1 phase

Source: patent publication US20230310427A1, “NEW THERAPEUTIC USE OF RILPIVIRINE” (UNIVERSITY OF SOUTH AUSTRALIA, priority 2020, published 2023)
